# Data as given in patent US20090317452A1, “Transdermal patch” (Sekisui Chemical Co. td., priority 2006, published 2009).
# What was measured:
# Format in all cases: physicochemical
# [1] = Solvency of the active substance in monomers (visual inspection); parameters: key: Excellent: The active substance was not found to have been precipitated in the solution of active substance both immediately after the preparation and after the preservation for 7 days.; Good: The active substance was found to have been precipitated in the solution of active substance immediately after the preparation, but the active substance was not found to have been precipitated in the solution of active substance after the preservation for 7 days.; Poor: The active substance was found to have been precipitated in the solution of active substance both immediately after the preparation and after the preservation for 7 days; conditions: 25° C., 7 days
# [2] = Residual rate of the active substance in monomer solution (HPLC); conditions: for Residual Rate (% by weight) after 7 Days: 25° C.
# [3] = Solvency of DMAE in alcohol/additive; conditions: 25° C.
# Description: When a crystal of DMAE was precipitated […], and when a crystal of DMAE was not precipitated, the solvency was evaluated to be “poor”.
# [4] = Solubility of DMAE at 25° C. in alcohol/additive
# Text: When the content of the saturated aliphatic monohydric alcohol is small in the plaster layer described above, the solvency and diffusibility of the DMAEs in the plaster layer decrease, and the transdermal absorbency of the DMAEs becomes insufficient. When the content of the saturated aliphatic monohydric alcohol is large in the plaster layer, the acrylic adhesive in the plaster layer becomes excessively plasticized, leading to an adhesive transfer when the transdermal patch is removed away from the skin. Therefore, the content of the saturated aliphatic monohydric alcohol in the plaster layer is limited to 1 to 30% by weight, and preferably 5 to 30%.
# An excess amount of DMAEs is added to the saturated aliphatic monohydric alcohol, a weight W0 (g) of the alcohol being measured in advance; a solution temperature is set at 50° C. to keep the warmth for one hour or more than one hour; and then a shaking operation is continued in a water bath of 25° C. for 10 minutes by means of supersonic waves to prepare a DMAEs saturated solution. Next, the DMAEs saturated solution, after being arranged to stand still for 24 hours at 25° C., is centrifuged at a speed of 3000 r.p.m., and a certain amount of clear supernatant solution of the DMAEs saturated solution is collected. Then, such collected clear supernatant solution is subjected to HPLC determination to determine a weight W1 (g) of the DMAEs dissolved in the DMAEs saturated solution, and solubility of the DMAEs with respect to the saturated aliphatic monohydric alcohol is figured out by using the following equation (1).
# Solubility of DMAEs (g)=(W1/W0)×100 Equation (1)
# [5] = 3 parts active substance in 100 parts 1-Vinyl-2-Pyrrolidone
# [6] = 3 parts active substance in 100 parts 2-Ethylhexyl Acrylate
# [7] = 3 parts active substance in 100 parts 2-Ethylhexyl Methacrylate
# [8] = 3 parts active substance in 100 parts Acrylic Acid
# [9] = 3 parts active substance in 100 parts Butyl Acrylate
# [10] = 3 parts active substance in 100 parts Butyl Methacrylate
# [11] = 3 parts active substance in 100 parts Dodecyl Methacrylate
# [12] = 3 parts active substance in 100 parts Ethyl Acrylate
# [13] = in Butyl Acrylate, N.D. = equal to or less than the HPLC detection limit
# [14] = in Ethyl Acrylate, N.D. = equal to or less than the HPLC detection limit
smiles,measurement,setting,value
"COc1ccc(OC)c(C(O)CN)c1 (stereo not shown) [DMAE, 2-amino-1-(2′,5′-dimethoxyphenyl)ethanol]",Solvency of the active substance,[1]; [5],Poor
same,Solvency of the active substance,[1]; [6],Poor
same,Solvency of the active substance,[1]; [7],Poor
same,Solvency of the active substance,[1]; [8],Excellent
same,Solvency of the active substance,[1]; [9],Good
same,Solvency of the active substance,[1]; [10],Poor
same,Solvency of the active substance,[1]; [11],Poor
same,Solvency of the active substance,[1]; [12],Excellent
same,Residual Rate (% by weight) Immediately after Preparation,[2]; in 1-Vinyl-2-Pyrrolidone,100 % by weight
same,Residual Rate (% by weight) after 7 Days,[2]; in 1-Vinyl-2-Pyrrolidone,100 % by weight
same,Residual Rate (% by weight) Immediately after Preparation,[2]; in 2-Ethylhexyl Acrylate,39 % by weight
same,Residual Rate (% by weight) after 7 Days,[2]; in 2-Ethylhexyl Acrylate,11 % by weight
same,Residual Rate (% by weight) Immediately after Preparation,[2]; in 2-Ethylhexyl Methacrylate,99 % by weight
same,Residual Rate (% by weight) after 7 Days,[2]; in 2-Ethylhexyl Methacrylate,99 % by weight
same,Residual Rate (% by weight) Immediately after Preparation,[2]; in Acrylic Acid,99 % by weight
same,Residual Rate (% by weight) after 7 Days,[2]; in Acrylic Acid,97 % by weight
same,Residual Rate (% by weight) Immediately after Preparation,[2]; in Butyl Acrylate,27 % by weight
same,Residual Rate (% by weight) Immediately after Preparation,[2]; in Butyl Methacrylate,98 % by weight
same,Residual Rate (% by weight) after 7 Days,[2]; in Butyl Methacrylate,98 % by weight
same,Residual Rate (% by weight) Immediately after Preparation,[2]; in Dodecyl Methacrylate,100 % by weight
same,Residual Rate (% by weight) after 7 Days,[2]; in Dodecyl Methacrylate,99 % by weight
same,Solvency of DMAE,[3]; 50 parts DMAE in 950 parts Butylene Glycol,Poor
same,Solvency of DMAE,[3]; 50 parts DMAE in 950 parts Diethyl Sebacate,Excellent
same,Solvency of DMAE,[3]; 50 parts DMAE in 950 parts Hexyldecanol,Excellent
same,Solvency of DMAE,[3]; 50 parts DMAE in 950 parts Isostearic Acid,Poor
same,Solvency of DMAE,[3]; 50 parts DMAE in 950 parts Isostearyl Alcohol,Excellent
same,Solvency of DMAE,[3]; 50 parts DMAE in 950 parts Lauryl Alcohol,Excellent
same,Solvency of DMAE,[3]; 50 parts DMAE in 950 parts Liquid Paraffin,Excellent
same,Solvency of DMAE,[3]; 50 parts DMAE in 950 parts Medium-chain Triglyceride,Excellent
same,Solvency of DMAE,[3]; 50 parts DMAE in 950 parts Monoethanolamine,Poor
same,Solvency of DMAE,[3]; 50 parts DMAE in 950 parts Octanediol,Poor
same,Solvency of DMAE,[3]; 50 parts DMAE in 950 parts Octyldodecanol,Excellent
same,Solvency of DMAE,[3]; 50 parts DMAE in 950 parts Oleic Acid,Excellent
same,Solvency of DMAE,[3]; 50 parts DMAE in 950 parts Oleyl Alcohol,Excellent
same,Solvency of DMAE,[3]; 50 parts DMAE in 950 parts Polyoxyethylene (2) Lauryl Ether,Excellent
same,Solvency of DMAE,[3]; 50 parts DMAE in 950 parts Propylene Glycol,Poor
same,Solvency of DMAE,[3]; 50 parts DMAE in 950 parts Squalane,Excellent
same,Solvency of DMAE,[3]; 50 parts DMAE in 950 parts Triacetin,Poor
same,Solubility of DMAE,[4]; g DMAE per 100 g Diethyl Sebacate at 25° C.,0.87 g
same,Solubility of DMAE,[4]; g DMAE per 100 g Hexyldecanol at 25° C.,1.4 g
same,Solubility of DMAE,[4]; g DMAE per 100 g Isostearyl Alcohol at 25° C.,1.8 g
same,Solubility of DMAE,[4]; g DMAE per 100 g Lauryl Alcohol at 25° C.,2.6 g
same,Solubility of DMAE,[4]; g DMAE per 100 g Liquid Paraffin at 25° C.,0.02 g
same,Solubility of DMAE,[4]; g DMAE per 100 g Medium-chain Triglyceride at 25° C.,0.31 g
same,Solubility of DMAE,[4]; g DMAE per 100 g Octyldodecanol at 25° C.,0.84 g
same,Solubility of DMAE,[4]; g DMAE per 100 g Oleic Acid at 25° C.,3.7 g
same,Solubility of DMAE,[4]; g DMAE per 100 g Oleyl Alcohol at 25° C.,2.5 g
same,Solubility of DMAE,[4]; g DMAE per 100 g Polyoxyethylene (2) Lauryl Ether at 25° C.,3.7 g
same,Solubility of DMAE,[4]; g DMAE per 100 g Squalane at 25° C.,0.01 g
"COc1ccc2c(c1)c(CC(=O)O)c(C)n2C(=O)c1ccc(Cl)cc1 [IMT, indomethacin]",Solvency of the active substance,[1]; [5],Excellent
same,Solvency of the active substance,[1]; [6],Poor
same,Solvency of the active substance,[1]; [7],Poor
same,Solvency of the active substance,[1]; [8],Excellent
same,Solvency of the active substance,[1]; [9],Poor
same,Solvency of the active substance,[1]; [10],Poor
same,Solvency of the active substance,[1]; [11],Poor
same,Solvency of the active substance,[1]; [12],Poor
same,Residual Rate (% by weight) Immediately after Preparation,[2]; in 1-Vinyl-2-Pyrrolidone,100 % by weight
same,Residual Rate (% by weight) after 7 Days,[2]; in 1-Vinyl-2-Pyrrolidone,100 % by weight
same,Residual Rate (% by weight) Immediately after Preparation,[2]; in 2-Ethylhexyl Acrylate,100 % by weight
same,Residual Rate (% by weight) after 7 Days,[2]; in 2-Ethylhexyl Acrylate,100 % by weight
same,Residual Rate (% by weight) Immediately after Preparation,[2]; in 2-Ethylhexyl Methacrylate,100 % by weight
same,Residual Rate (% by weight) after 7 Days,[2]; in 2-Ethylhexyl Methacrylate,100 % by weight
same,Residual Rate (% by weight) Immediately after Preparation,[2]; in Acrylic Acid,100 % by weight
same,Residual Rate (% by weight) after 7 Days,[2]; in Acrylic Acid,100 % by weight
same,Residual Rate (% by weight) Immediately after Preparation,[2]; in Butyl Acrylate,100 % by weight
same,Residual Rate (% by weight) after 7 Days,[2]; [13],100 % by weight
same,Residual Rate (% by weight) Immediately after Preparation,[2]; in Butyl Methacrylate,100 % by weight
same,Residual Rate (% by weight) after 7 Days,[2]; in Butyl Methacrylate,99 % by weight
same,Residual Rate (% by weight) Immediately after Preparation,[2]; in Dodecyl Methacrylate,100 % by weight
same,Residual Rate (% by weight) after 7 Days,[2]; in Dodecyl Methacrylate,100 % by weight
same,Residual Rate (% by weight) after 7 Days,[2]; in Ethyl Acrylate,99 % by weight
same,Residual Rate (% by weight) Immediately after Preparation,[2]; [14],100 % by weight
"O=[N+]([O-])O[C@H]1CO[C@H]2[C@@H]1OC[C@H]2O[N+](=O)[O-] [ISDN, isosorbide dinitrate]",Solvency of the active substance,[1]; [5],Excellent
same,Solvency of the active substance,[1]; [6],Excellent
same,Solvency of the active substance,[1]; [7],Excellent
same,Solvency of the active substance,[1]; [8],Excellent
same,Solvency of the active substance,[1]; [9],Excellent
same,Solvency of the active substance,[1]; [10],Excellent
same,Solvency of the active substance,[1]; [11],Excellent
same,Solvency of the active substance,[1]; [12],Excellent
same,Residual Rate (% by weight) Immediately after Preparation,[2]; in 1-Vinyl-2-Pyrrolidone,100 % by weight
same,Residual Rate (% by weight) after 7 Days,[2]; in 1-Vinyl-2-Pyrrolidone,100 % by weight
same,Residual Rate (% by weight) Immediately after Preparation,[2]; in 2-Ethylhexyl Acrylate,100 % by weight
same,Residual Rate (% by weight) after 7 Days,[2]; in 2-Ethylhexyl Acrylate,100 % by weight
same,Residual Rate (% by weight) Immediately after Preparation,[2]; in 2-Ethylhexyl Methacrylate,100 % by weight
same,Residual Rate (% by weight) after 7 Days,[2]; in 2-Ethylhexyl Methacrylate,99 % by weight
same,Residual Rate (% by weight) Immediately after Preparation,[2]; in Acrylic Acid,100 % by weight
same,Residual Rate (% by weight) after 7 Days,[2]; in Acrylic Acid,100 % by weight
same,Residual Rate (% by weight) Immediately after Preparation,[2]; in Butyl Acrylate,100 % by weight
same,Residual Rate (% by weight) after 7 Days,[2]; [13],100 % by weight
same,Residual Rate (% by weight) Immediately after Preparation,[2]; in Butyl Methacrylate,100 % by weight
same,Residual Rate (% by weight) after 7 Days,[2]; in Butyl Methacrylate,100 % by weight
same,Residual Rate (% by weight) Immediately after Preparation,[2]; in Dodecyl Methacrylate,100 % by weight
same,Residual Rate (% by weight) after 7 Days,[2]; in Dodecyl Methacrylate,100 % by weight
same,Residual Rate (% by weight) after 7 Days,[2]; in Ethyl Acrylate,100 % by weight
same,Residual Rate (% by weight) Immediately after Preparation,[2]; [14],100 % by weight
"CC(C)(C)NCC(O)c1ccccc1Cl (stereo not shown) [TB, tulobuterol]",Solvency of the active substance,[1]; [5],Excellent
same,Solvency of the active substance,[1]; [6],Excellent
same,Solvency of the active substance,[1]; [7],Excellent
same,Solvency of the active substance,[1]; [8],Excellent
same,Solvency of the active substance,[1]; [9],Excellent
same,Solvency of the active substance,[1]; [10],Excellent
same,Solvency of the active substance,[1]; [11],Good
same,Solvency of the active substance,[1]; [12],Excellent
same,Residual Rate (% by weight) Immediately after Preparation,[2]; in 1-Vinyl-2-Pyrrolidone,100 % by weight
same,Residual Rate (% by weight) after 7 Days,[2]; in 1-Vinyl-2-Pyrrolidone,100 % by weight
same,Residual Rate (% by weight) Immediately after Preparation,[2]; in 2-Ethylhexyl Acrylate,100 % by weight
same,Residual Rate (% by weight) after 7 Days,[2]; in 2-Ethylhexyl Acrylate,88 % by weight
same,Residual Rate (% by weight) Immediately after Preparation,[2]; in 2-Ethylhexyl Methacrylate,100 % by weight
same,Residual Rate (% by weight) after 7 Days,[2]; in 2-Ethylhexyl Methacrylate,100 % by weight
same,Residual Rate (% by weight) Immediately after Preparation,[2]; in Acrylic Acid,100 % by weight
same,Residual Rate (% by weight) after 7 Days,[2]; in Acrylic Acid,96 % by weight
same,Residual Rate (% by weight) Immediately after Preparation,[2]; in Butyl Acrylate,100 % by weight
same,Residual Rate (% by weight) after 7 Days,[2]; [13],81 % by weight
same,Residual Rate (% by weight) Immediately after Preparation,[2]; in Butyl Methacrylate,100 % by weight
same,Residual Rate (% by weight) after 7 Days,[2]; in Butyl Methacrylate,100 % by weight
same,Residual Rate (% by weight) Immediately after Preparation,[2]; in Dodecyl Methacrylate,100 % by weight
same,Residual Rate (% by weight) after 7 Days,[2]; in Dodecyl Methacrylate,100 % by weight
same,Residual Rate (% by weight) after 7 Days,[2]; in Ethyl Acrylate,70 % by weight
same,Residual Rate (% by weight) Immediately after Preparation,[2]; [14],100 % by weight
